Assay results: the supplement of paper PMC10307832

Assays:
Assay in all cases: relative viability (nuclei count vs DMSO), 5 days (fraction); higher = more cells survive
[1] = compound: CC1CC(=O)N(C2=CN=C(N=C2N1C3CCCC3)NC4=C(C=C(C=C4)C(=O)NC5CCN(CC5)C)OC)C [NPK76-II-72-1] + CC(C)C[C@H](NC(=O)[C@H](Cc1ccccc1)NC(=O)c1cnccn1)B(O)O [Bortezomib] (partner 0.002 µM)
Outline: (§1)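 After 5 days of treatment, lung cancer cells in 1536-well plates were fixed and stained in a single step (final 0.05% Triton X-100, 1% formaldehyde, 1 ug/ml Hoechst) and their nuclei counted on 4× images. Treatment had been applied by pin tool the day after seeding as one drug alone or as a fixed anchor-drug dose with five library-drug doses (not always all listed) in √10 steps. Relative viability is the nuclei count of treated wells divided by that of vehicle wells, and values are medians of duplicate plates.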

[2] = compound: CC1CC(=O)N(C2=CN=C(N=C2N1C3CCCC3)NC4=C(C=C(C=C4)C(=O)NC5CCN(CC5)C)OC)C [NPK76-II-72-1] + O=C(CCCCCCC(=O)Nc1ccccc1)NO [Vorinostat] (partner 1 µM)
Outline: as §1

BI-2536 + Phenformin = compound: CC[C@@H]1C(=O)N(C)c2cnc(Nc3ccc(C(=O)NC4CCN(C)CC4)cc3OC)nc2N1C1CCCC1 [BI-2536] + N=C(N)NC(=N)NCCc1ccccc1 [Phenformin] (partner 250 µM)
Outline: as §1

BI-2536 + AZD7762 = compound: CC[C@@H]1C(=O)N(C)c2cnc(Nc3ccc(C(=O)NC4CCN(C)CC4)cc3OC)nc2N1C1CCCC1 [BI-2536] + NC(=O)Nc1cc(-c2cccc(F)c2)sc1C(=O)N[C@H]1CCCNC1 [AZD7762] (partner 0.2 µM)
Outline: as §1

Cell Line	relative viability ([1]; first compound 0.01 µM)	relative viability ([1]; first compound 0.03162 µM)	relative viability ([1]; first compound 0.1 µM)	relative viability ([1]; first compound 0.3162 µM)	relative viability ([1]; first compound 1 µM)	relative viability ([2]; first compound 0.01 µM)	relative viability ([2]; first compound 0.03162 µM)	relative viability ([2]; first compound 0.1 µM)	relative viability ([2]; first compound 0.3162 µM)	relative viability ([2]; first compound 1 µM)	relative viability (BI-2536 + Phenformin; first compound 0.01 µM)	relative viability (BI-2536 + Phenformin; first compound 0.03162 µM)	relative viability (BI-2536 + Phenformin; first compound 0.1 µM)	relative viability (BI-2536 + Phenformin; first compound 0.3162 µM)	relative viability (BI-2536 + Phenformin; first compound 1 µM)	relative viability (BI-2536 + AZD7762; first compound 0.01 µM)	relative viability (BI-2536 + AZD7762; first compound 0.03162 µM)	relative viability (BI-2536 + AZD7762; first compound 0.1 µM)	relative viability (BI-2536 + AZD7762; first compound 0.3162 µM)	relative viability (BI-2536 + AZD7762; first compound 1 µM)
NCI-H3122	1	1.01	0.935	1.03	1.02	0.943	0.923	1.05	1.05	1.05	0.38	0.34	0.137	0.158	0.127	0.939	1	0.204	0.139	0.117
NCI-H460	1.02	1.26	1.11	1.01	1.18	0.684	0.799	0.703	0.748	0.636	0.524	0.409	0.0506	0.0146	0.0134	0.724	0.649	0.473	0.0346	0.0318
NCI-H650	0.862	0.678	0.729		1.02	0.445	0.441	0.453	0.307	0.521	0.462	0.438	0.163	0.154	0.14	0.944	1.4	0.541	0.201	0.138
NCI-H1734	0.879	0.96	0.969	0.779	1.13	0.857	0.845	0.779	0.764	0.951	0.393	0.24	0.159	0.151	0.167	0.461	0.596	0.16	0.134	0.142
LXF-289	1.02	1.06	0.955	1.04	1.02	0.772	0.714	0.703	0.655	0.756	0.467	0.488	0.159	0.0389	0.039	1	1.14	0.61	0.0819	0.083
H3255	0.841	0.642	0.647		1.11	0.873	0.605	0.722		0.797	0.3	0.318	0.306	0.268	0.329	0.951	0.728	0.66	0.228	0.298
201T	1.07	1.14	1.08	1.17	1.1	0.803	0.989	0.93	0.962	1.14	0.38	0.431	0.276	0.315	0.23	0.609	0.647	0.588	0.33	0.255
NCI-H2126	1.01	1.16	1.11	1.07	1.16	0.761	0.798	0.846	0.713	0.828	0.5	0.495	0.231	0.279	0.247	1.01	1.09	0.855	0.428	0.223
HOP-62	0.743	0.754	0.433	0.916	0.824	0.618	0.767	0.598	0.39	0.713	0.7	0.654	0.43	0.141	0.141	0.505	0.653	0.235	0.15	0.101
CAL-12T	0.874	0.832	0.872		1.01	0.532	0.798	0.687	0.812	0.688	0.543	0.422	0.289	0.134	0.115	0.608	0.712	0.619	0.177	0.187
NCI-H1755	0.932	0.898	0.95	0.98	1.08	0.89	0.76	0.928	0.82	0.782	0.603	0.578	0.328	0.237	0.253	0.452	0.467	0.305	0.253	0.265
